For experiment [1], the target named is T1, MLKL (Homo sapiens, UniProt Q8NB16).
T1 sequence (Q8NB16 1-471): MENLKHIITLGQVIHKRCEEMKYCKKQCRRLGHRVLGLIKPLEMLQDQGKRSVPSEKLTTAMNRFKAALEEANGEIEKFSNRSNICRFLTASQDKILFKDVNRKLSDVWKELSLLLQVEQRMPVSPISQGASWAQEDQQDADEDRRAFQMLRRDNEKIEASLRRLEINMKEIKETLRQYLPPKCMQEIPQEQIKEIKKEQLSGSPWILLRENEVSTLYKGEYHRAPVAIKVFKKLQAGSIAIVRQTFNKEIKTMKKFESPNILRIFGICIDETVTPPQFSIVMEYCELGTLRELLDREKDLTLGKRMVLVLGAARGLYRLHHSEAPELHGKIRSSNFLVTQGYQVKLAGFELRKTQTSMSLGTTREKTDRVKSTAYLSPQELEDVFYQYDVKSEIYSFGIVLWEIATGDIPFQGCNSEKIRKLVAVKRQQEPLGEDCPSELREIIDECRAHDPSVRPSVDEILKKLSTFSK
Kind of experiment: MLKL degradation assay in HepG2 cell line (western blot). The experiment is classed as cell-based. The arrangement: endogenous in cells; host or cells: HepG2 or HaCaT. As to conditions: cell line not given; for Degradation assay (Degradation %) 1 μM: compound 1 μM; for Degradation assay (Degradation %) 10 μM: compound 10 μM. The gist of the method:
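HepG2, cpd final 1 or 10 μM, 20-24 h, 37 °C/5% CO2; RIPA lysis, BCA-normalized, 10-15 μg/lane SDS-PAGE, western blot, ECL read-out.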
Background: Immunoblotting shows a protein as a band on a membrane.

In experiment [2] the target is T1, MLKL. The experiment is described as follows: Measurement of binding affinity with MLKL receptor (competitive binding assay, Kd). Also noted: made in house; host or cells: HEK 293 cell line (T7 phage in E. coli BL21-derived host is also described). The method in brief:
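Competition binding of kinase tagged with DNA for qPCR detection, expressed in HEK 293 cells, against immobilized ligand on beads. Final DMSO 0.9%. Kd derived from kinase amount in eluates measured by qPCR.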

The next experiment has as its system FADD−/− Jurkat cells. The experiment is described as follows: Necroptosis inhibition assay, TNF-α-induced necroptosis (CellTiter-Glo 2.0). It counts as cell-based, human. The note with it: TNF-α 15 ng/mL; for Necroptosis inhibition assay (Rescue %) 1 μM: compound 1 μM; for Necroptosis inhibition assay (Rescue %) 10 μM: compound 10 μM. The gist of the method:
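Cmpd 0.1/1/10 μM final, 30 min RT preincubation; TNF-α 15 ng/mL final; 20–24 h, 37° C, 5% CO2. Readout: ATP luminescence (reagent 1:3 in PBS), 0.5 s/well. Cytotoxicity and % necroptosis inhibition calculated from signal.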
On the technique in general: In ATP-based viability assays light output follows the ATP content of the culture.

One may read the Kd as the concentration at which binding is half-saturated.

As for `Nc1ncc(-c2cnn(C3CCN(C4CC5(CCN(CC6CCN(C(=O)C7CCN(C8=CC(=O)N(C9CCC(=O)NC9=O)C8=O)CC7)CC6)CC5)C4)CC3)c2)nc1C(=O)O[C@@H](C(=O)Nc1ccc(F)cc1)c1ccccc1` (stereo partly drawn) [TDH-528, (R)-2-((4-fluorophenyl)amino)-2-oxo-1-phenylethyl 3-amino-6-(1-(1-(7-((1-(1-(1-(2,6-dioxopiperidin-3-yl)-2,5-dioxo-2,5-dihydro-1H-pyrrol-3-yl)piperidine-4-carbonyl)piperidin-4-yl)methyl)-7-azaspiro[3.5]nonan-2-yl)piperidin-4-yl)-1H-pyrazol-4-yl)pyrazine-2-carboxylate], at MLKL [1], the “Degradation assay (Degradation %) 1 μM” value was 63.93% and the “Degradation assay (Degradation %) 10 μM” value is 56.11%. In addition, on MLKL [2], binding was characterised by a dissociation constant (Kd) of 0.18 nM. Besides, in the experiment with FADD−/− Jurkat cells (FADD−/− Jurkat cells), the “Necroptosis inhibition assay (Rescue %) 1 μM” value was 40.69% and the “Necroptosis inhibition assay (Rescue %) 10 μM” value stood at 0.38%.

With `Nc1ncc(-c2cnn(C3CCN(C(=O)C4CCN(C(=O)CNc5cccc6nnn(C7CCC(=O)NC7=O)c(=O)c56)CC4)CC3)c2)nc1C(=O)O[C@@H](C(=O)Nc1ccc(F)cc1)c1ccccc1` (stereo partly drawn) [TDH-413, (R)-2-((4-fluorophenyl)amino)-2-oxo-1-phenylethyl 3-amino-6-(1-(1-(1-((3-(2,6-dioxopiperidin-3-yl)-4-oxo-3,4-dihydrobenzo[d][1,2,3]triazin-5-yl)glycyl)piperidine-4-carbonyl)piperidin-4-yl)-1H-pyrazol-4-yl)pyrazine-2-carboxylate], at MLKL [1], the “Degradation assay (Degradation %) 1 μM” value stood at 71.41% and the “Degradation assay (Degradation %) 10 μM” value came out at 57.83%. Also, binding at MLKL [2] was characterised by a dissociation constant (Kd) of 0.92 nM. Further, in the experiment with FADD−/− Jurkat cells (FADD−/− Jurkat cells), the “Necroptosis inhibition assay (Rescue %) 1 μM” value amounted to 24.79% and the “Necroptosis inhibition assay (Rescue %) 10 μM” value is 18.59%.

On to `Nc1ncc(-c2cnn(C3CCN(C(=O)c4cn(C5CCN(C(=O)C6CCN(c7ccc8c(c7)C(=O)N(C7CCC(=O)NC7=O)C8=O)CC6)CC5)cn4)CC3)c2)nc1C(=O)O[C@@H](C(=O)Nc1ccc(F)cc1)c1ccccc1` (stereo partly drawn) [TDH-363, (R)-2-((4-fluorophenyl)amino)-2-oxo-1-phenylethyl 3-amino-6-(1-(1-(1-(1-(1-(2-(2,6-dioxopiperidin-3-yl)-1,3-dioxoisoindolin-5-yl)piperidine-4-carbonyl)piperidin-4-yl)-1H-imidazole-4-carbonyl)piperidin-4-yl)-1H-pyrazol-4-yl)pyrazine-2-carboxylate], for which, on MLKL [1], the “Degradation assay (Degradation %) 1 μM” value came to 76.83% and the “Degradation assay (Degradation %) 10 μM” value came out at 69.84%. This compound also gave a Kd at MLKL [2] of 2.9 nM. For the same compound, in the experiment on FADD−/− Jurkat cells, the “Necroptosis inhibition assay (Rescue %) 1 μM” value is 32.65% and the “Necroptosis inhibition assay (Rescue %) 10 μM” value turned out to be 27.11%.

For `Nc1ncc(-c2cnn(C3CCN(CCC4CCN(C(=O)COc5cccc6c5C(=O)N(C5CCC(=O)NC5=O)C6=O)CC4)CC3)c2)cc1C(=O)OC(C(=O)Nc1ccc(F)cc1)c1ccccc1` (centres unmarked) [TDH-301, 2-((4-fluorophenyl)amino)-2-oxo-1-phenylethyl 2-amino-5-(1-(1-(2-(1-(2-((2-(2,6-dioxopiperidin-3-yl)-1,3-dioxoisoindolin-4-yl)oxy)acetyl)piperidin-4-yl)ethyl)piperidin-4-yl)-1H-pyrazol-4-yl)nicotinate], on MLKL [1], the “Degradation assay (Degradation %) 1 μM” value stood at 76.3% and the “Degradation assay (Degradation %) 10 μM” value is reported as 89.97%. For the same compound, the affinity on MLKL [2], expressed as Kd, was 2.9 nM. For the same compound, in the experiment with FADD−/− Jurkat cells, the “Necroptosis inhibition assay (Rescue %) 1 μM” value amounted to 61.06% and the “Necroptosis inhibition assay (Rescue %) 10 μM” value stood at 26.7%.

Turning to `Nc1ncc(-c2cnn(C3CN(CC4CCN(C(=O)CNc5ccc6c(c5)C(=O)N(C5CCC(=O)NC5=O)C6=O)CC4)C3)c2)nc1C(=O)OC(C(=O)Nc1ccc(F)cc1)c1ccccc1` (centres unmarked) [TDH-297, 2-((4-fluorophenyl)amino)-2-oxo-1-phenylethyl 3-amino-6-(1-(1-((1-((2-(2,6-dioxopiperidin-3-yl)-1,3-dioxoisoindolin-5-yl)glycyl)piperidin-4-yl)methyl)azetidin-3-yl)-1H-pyrazol-4-yl)pyrazine-2-carboxylate], on MLKL [1], the “Degradation assay (Degradation %) 1 μM” value was found to be 76.86% and the “Degradation assay (Degradation %) 10 μM” value was determined as 70.16%. On MLKL [2], this compound showed a Kd of 13 nM. For the same compound, in the experiment with FADD−/− Jurkat cells, the “Necroptosis inhibition assay (Rescue %) 1 μM” value stood at 74.28% and the “Necroptosis inhibition assay (Rescue %) 10 μM” value was 63.92%.

Turning to `Nc1ncc(-c2cnn(C3CCN(C[C@H]4CC[C@H](CNc5cccc6c5C(=O)N(C5CCC(=O)NC5=O)C6=O)CC4)CC3)c2)nc1C(=O)O[C@@H](C(=O)Nc1ccc(F)cc1)c1ccccc1` (stereo partly drawn) [TDH-351, (R)-2-((4-fluorophenyl)amino)-2-oxo-1-phenylethyl 3-amino-6-(1-(1-(((1r,4r)-4-(((2-(2,6-dioxopiperidin-3-yl)-1,3-dioxoisoindolin-4-yl)amino)methyl)cyclohexyl)methyl)piperidin-4-yl)-1H-pyrazol-4-yl)pyrazine-2-carboxylate], at MLKL [1], the “Degradation assay (Degradation %) 1 μM” value was 62.4% and the “Degradation assay (Degradation %) 10 μM” value stood at 24.61%. The same compound displayed a dissociation constant Kd on MLKL [2] of 6.1 nM. Further, in the experiment with FADD−/− Jurkat cells, the “Necroptosis inhibition assay (Rescue %) 1 μM” value was 0.74% and the “Necroptosis inhibition assay (Rescue %) 10 μM” value is recorded as 3.39%.

Take `Nc1ncc(-c2cnn(C3CCN(CC4CCN(C(=O)C5CN(c6cccc7c6C(=O)N(C6CCC(=O)NC6=O)C7=O)C5)CC4)CC3)c2)nc1C(=O)O[C@@H](C(=O)Nc1ccc(F)cc1)c1ccccc1` (stereo partly drawn) [TDH-138, (R)-2-((4-fluorophenyl)amino)-2-oxo-1-phenylethyl 3-amino-6-(1-(1-((1-(1-(2-(2,6-dioxopiperidin-3-yl)-1,3-dioxoisoindolin-4-yl)azetidine-3-carbonyl)piperidin-4-yl)methyl)piperidin-4-yl)-1H-pyrazol-4-yl)pyrazine-2-carboxylate]: at MLKL [1], the “Degradation assay (Degradation %) 1 μM” value came out at 40.46% and the “Degradation assay (Degradation %) 10 μM” value is on record as 25.69%. In addition, the equilibrium dissociation constant (Kd) on MLKL [2] was 4.2 nM. In addition, in the experiment with FADD−/− Jurkat cells, the “Necroptosis inhibition assay (Rescue %) 1 μM” value is reported as 70.53% and the “Necroptosis inhibition assay (Rescue %) 10 μM” value is reported as 60.57%.

On to `Nc1ncc(-c2cnn(C3CCN(CCCN4CCN(CC5CCN(C(=O)CNc6ccc7c(c6)C(=O)N(C6CCC(=O)NC6=O)C7=O)CC5)CC4)CC3)c2)nc1C(=O)O[C@@H](C(=O)Nc1ccc(F)cc1)c1ccccc1` (stereo partly drawn) [TDH-441, (R)-2-((4-fluorophenyl)amino)-2-oxo-1-phenylethyl 3-amino-6-(1-(1-(3-(4-((1-((2-(2,6-dioxopiperidin-3-yl)-1,3-dioxoisoindolin-5-yl)glycyl)piperidin-4-yl)methyl)piperazin-1-yl)propyl)piperidin-4-yl)-1H-pyrazol-4-yl)pyrazine-2-carboxylate], for which, at MLKL [1], the “Degradation assay (Degradation %) 1 μM” value was found to be 87.59% and the “Degradation assay (Degradation %) 10 μM” value came out at 87.7%. Besides, the equilibrium dissociation constant (Kd) on MLKL [2] is 0.69 nM. Further, in the experiment with FADD−/− Jurkat cells (FADD−/− Jurkat cells), the “Necroptosis inhibition assay (Rescue %) 1 μM” value is 71.58% and the “Necroptosis inhibition assay (Rescue %) 10 μM” value is on record as −15.73%.

Turning to `Nc1ncc(-c2cnn(C3CCN(CCCCCCCCCCNC(=O)COc4ccc5nnn(C6CCC(=O)NC6=O)c(=O)c5c4)CC3)c2)nc1C(=O)O[C@@H](C(=O)Nc1ccc(F)cc1)c1ccccc1` (stereo partly drawn) [TDH-176, (R)-2-((4-fluorophenyl)amino)-2-oxo-1-phenylethyl 3-amino-6-(1-(1-(10-(2-((3-(2,6-dioxopiperidin-3-yl)-4-oxo-3,4-dihydrobenzo[d][1,2,3]triazin-6-yl)oxy)acetamido)decyl)piperidin-4-yl)-1H-pyrazol-4-yl)pyrazine-2-carboxylate], at MLKL [1], the “Degradation assay (Degradation %) 1 μM” value was 34.07% and the “Degradation assay (Degradation %) 10 μM” value came to 23.76%. Further, the Kd on MLKL [2] was 22 nM. For the same compound, in the experiment with FADD−/− Jurkat cells, the “Necroptosis inhibition assay (Rescue %) 1 μM” value was 44.28% and the “Necroptosis inhibition assay (Rescue %) 10 μM” value was determined as 35.42%.

Take `Nc1ncc(-c2cnn(C3CCN(CCC4CCN(C(=O)Cc5cccc(NC6=CC(=O)N(C7CCC(=O)NC7=O)C6=O)c5)CC4)CC3)c2)nc1C(=O)O[C@@H](C(=O)Nc1ccc(F)cc1)c1ccccc1` (stereo partly drawn) [TDH-518, (R)-2-((4-fluorophenyl)amino)-2-oxo-1-phenylethyl 3-amino-6-(1-(1-(2-(1-(2-(3-((1-(2,6-dioxopiperidin-3-yl)-2,5-dioxo-2,5-dihydro-1H-pyrrol-3-yl)amino)phenyl)acetyl)piperidin-4-yl)ethyl)piperidin-4-yl)-1H-pyrazol-4-yl)pyrazine-2-carboxylate]: on MLKL [1], the “Degradation assay (Degradation %) 1 μM” value was determined as 89.77% and the “Degradation assay (Degradation %) 10 μM” value amounted to 88.59%. The compound further gave a Kd on MLKL [2] of 4.3 nM. Further, in the experiment on FADD−/− Jurkat cells (FADD−/− Jurkat cells), the “Necroptosis inhibition assay (Rescue %) 1 μM” value turned out to be 12.44% and the “Necroptosis inhibition assay (Rescue %) 10 μM” value is on record as −8.57%.

The values are drawn from patent publication US20240252488A1 (KOREA RESEARCH INSTITUTE OF CHEMICAL TECHNOLOGY, priority 2020, published 2024).
